From US20080293712A1, “Benzo[C][2,7]Naphtyridine Derivatives, Methods of Making Thereof and Methods of Use Thereof” (WYETH, priority 2007, published 2008)
Where two headings read alike, the source gives them in different places. Values belong to the compound of their own block, whether it stands above or below them.

Assays:
Assay type in all cases: biochemical
PDK-1 = target: T1, PDK-1 (Homo sapiens, UniProt O15530); assay: PDK-1 kinase inhibition ELISA assay (phosphorylation of His6-tagged SGK1 S422D by PDK-1)
T1 sequence (O15530 1-556): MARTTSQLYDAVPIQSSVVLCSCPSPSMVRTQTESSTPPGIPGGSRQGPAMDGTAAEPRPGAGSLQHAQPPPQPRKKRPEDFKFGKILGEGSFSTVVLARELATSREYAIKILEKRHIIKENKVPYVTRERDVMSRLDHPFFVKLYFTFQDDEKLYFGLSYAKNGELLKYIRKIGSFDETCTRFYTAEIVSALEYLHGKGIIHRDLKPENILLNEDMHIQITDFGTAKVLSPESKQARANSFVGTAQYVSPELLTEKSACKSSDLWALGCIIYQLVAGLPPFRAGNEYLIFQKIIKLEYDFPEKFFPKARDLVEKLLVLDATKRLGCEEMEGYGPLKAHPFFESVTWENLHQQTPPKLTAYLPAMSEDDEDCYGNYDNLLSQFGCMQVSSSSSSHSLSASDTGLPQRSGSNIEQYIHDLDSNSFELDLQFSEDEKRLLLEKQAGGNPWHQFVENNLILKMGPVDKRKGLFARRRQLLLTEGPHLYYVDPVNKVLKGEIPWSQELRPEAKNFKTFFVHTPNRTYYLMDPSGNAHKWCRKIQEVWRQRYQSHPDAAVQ

PKA = PKA (Homo sapiens, UniProt P17612); assay: PKA kinase inhibition, Z'-LYTE FRET assay; settings: 20 μM ATP
Akt1 = Akt1 (Homo sapiens, UniProt P31749); assay: Akt1 kinase inhibition, Z'-LYTE FRET assay; settings: 100 μM ATP
From the text: The ability of illustrative Benzo[c][2,7]naphthyridine Derivatives to inhibit PKA, Akt1, S6K in vitro can be determined using a Fluorescence Resonance Energy Transfer (FRET) assay, such as a Z′-LYTE™ Kinase Assay Platform, commercially available from Invitrogen (c.f. Rodems et al., ASSAY Drug Devel. Technol. 1:9-19 (2002) and Zhang et al., J. Biomol. Screen. 4:67-73 (1999)). Z′-Lyte™ assay is an in vitro FRET-based assay that utilizes differential sensitivity of phosphorylated and non-phosphorylated peptides to proteolytic cleavage. The peptide substrate (also available from Invitrogen for each of PKA, Akt1 and S6K) is labeled with two different fluorophores, a fluorescence donor at one end of the peptide and a fluorescence acceptor at the other end of the peptide. In the primary kinase reaction, the kinase phosphorylates the peptide substrate in the presence of ATP. In the secondary reaction, a site-specific protease recognizes and cleaves non-phosphorylated peptides, but not phosphorylated peptides. Cleavage disrupts FRET between the donor and acceptor fluorophores on the peptide, whereas uncleaved phosphorylated peptides maintain FRET. Based on a formula that uses the ratio of donor emission (at 460 nm) to acceptor emission (at […]) after excitation of the donor fluorophore at 400 nm, the extent of phosphorylation of the peptide substrates is calculated. IC50 values of illustrative Benzo[c][2,7]naphthyridine Derivatives, shown in Table 12, are calculated using LSW Data Analysis package add-in for Excel (Microsoft).

[1] = PDK-1 ELISA, Table 11, read-out: Average IC50

Sequence of Akt1 (P31749 whole entry, species assumed): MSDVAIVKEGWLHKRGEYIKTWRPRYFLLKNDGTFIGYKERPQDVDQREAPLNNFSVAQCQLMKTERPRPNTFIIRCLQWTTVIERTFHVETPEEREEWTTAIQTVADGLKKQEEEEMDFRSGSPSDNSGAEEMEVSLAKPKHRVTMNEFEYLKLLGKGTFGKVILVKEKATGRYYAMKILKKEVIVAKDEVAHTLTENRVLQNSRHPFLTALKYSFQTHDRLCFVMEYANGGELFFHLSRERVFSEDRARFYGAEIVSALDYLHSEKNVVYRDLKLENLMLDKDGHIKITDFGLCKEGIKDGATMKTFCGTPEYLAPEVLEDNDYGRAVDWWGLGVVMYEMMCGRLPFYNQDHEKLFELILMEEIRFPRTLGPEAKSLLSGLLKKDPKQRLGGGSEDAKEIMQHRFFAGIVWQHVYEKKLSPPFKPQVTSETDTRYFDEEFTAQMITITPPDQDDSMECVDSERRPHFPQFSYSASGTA

SMILES: COc1cc2c(cc1OCCCN1CCN(C)CC1)ncc1c(N)nc(-n3ccnc3)cc12 [Ia-14, 2-(1H-imidazol-1-yl)-9-methoxy-8-(3-(4-methylpiperazin-1-yl)propoxy)benzo[c][2,7]naphthyridin-4-amine]
IC50 (PDK-1; [1]): 0.356 µM | IC50 (PKA): > 10 µM | IC50 (Akt1): 0.35 µM

SMILES: CCOc1cc2ncc3c(N)nc(-n4ccnc4)cc3c2cc1NC(=O)Nc1ccc(N(C)C)cc1 [Ia-27, N-[4-amino-8-ethoxy-2-(1H-imidazol-1-yl)benzo[c]-2,7-naphthyridin-9-yl]-N′-[4-(dimethylamino)phenyl]urea]
IC50 (PDK-1; [1]): 0.617 µM | IC50 (PKA): > 20 µM | IC50 (Akt1): 16 µM

SMILES: CCN1CCN(CCC#Cc2ccc3ncc4c(N)nc(-n5ccnc5)cc4c3c2)CC1 [Ia-18, 9-[4-(4-Ethylpiperazin-1-yl)but-1-yn-1-yl]-2-(1H-imidazol-1-yl)benzo[c]-2,7-naphthyridin-4-amine]
IC50 (PDK-1; [1]): > 3 µM | IC50 (PKA): > 10 µM | IC50 (Akt1): > 10 µM

SMILES: COc1cc2c(cc1OCCCN1CCCC1)ncc1c(N)nc(-n3ccnc3)cc12 [Ia-15, 2-(1H-imidazol-1-yl)-9-methoxy-8-(3-(pyrrolidin-1-yl)propoxy)benzo[c][2,7]naphthyridin-4-amine]
IC50 (PDK-1; [1]): 0.498 µM | IC50 (PKA): > 10 µM | IC50 (Akt1): 0.38 µM

SMILES: CCN1CCN(CCC#Cc2ccc3c(c2)ncc2c(N)nc(-n4ccnc4)cc23)CC1 [Ia-35, 8-[4-(4-ethylpiperazin-1-yl)but-1-yn-1-yl]-2-(1H-imidazol-1-yl)benzo[c]-2,7-naphthyridin-4-amine]
IC50 (PDK-1; [1]): 0.493 µM | IC50 (PKA): 6 µM | IC50 (Akt1): 2.9 µM

SMILES: COc1cc2c(cc1N1CCC(N3CCCC3)CC1)ncc1c(N)nc(-c3cccnc3)cc12 [Ia-20, 9-methoxy-2-pyridin-3-yl-8-(4-pyrrolidin-1-ylpiperidin-1-yl)benzo[c]-2,7-naphthyridin-4-amine]
IC50 (PDK-1; [1]): 0.893 µM | IC50 (PKA): > 20 µM | IC50 (Akt1): 0.3 µM

SMILES: CN(C)CC#Cc1ccc2c(c1)ncc1c(N)nc(-n3ccnc3)cc12 [Ia-36, 8-[3-(Dimethylamino)prop-1-yn-1-yl]-2-(1H-imidazol-1-yl)benzo[c]-2,7-naphthyridin-4-amine]
IC50 (PDK-1; [1]): 0.531 µM | IC50 (Akt1): 2 µM

SMILES: CC(C)(C)OC(=O)N[C@H](COc1cncc(-c2cc3c(cnc4cc(Br)ccc43)c(N)n2)c1)Cc1ccccc1 [Ia-7, tert-butyl ((1S)-2-{[5-(4-amino-8-bromobenzo[c]-2,7-naphthyridin-2-yl)pyridin-3-yl]oxy}-1-benzylethyl)carbamate]
IC50 (PDK-1; [1]): > 5 µM | IC50 (PKA): > 20 µM | IC50 (Akt1): > 20 µM

SMILES: CCOc1cc2ncc3c(N)nc(-n4ccnc4)cc3c2cc1NC(C)=O [Ia-29, N-[4-amino-8-ethoxy-2-(1H-imidazol-1-yl)benzo[c]-2,7-naphthyridin-9-yl]acetamide]
IC50 (PDK-1; [1]): 0.385 µM | IC50 (PKA): > 5 µM | IC50 (Akt1): > 5 µM

SMILES: COc1cc2c(cc1OCC1CCN(C)CC1)ncc1c(N)nc(-c3cnccn3)cc12 [Ia-32]
IC50 (PDK-1; [1]): 0.754 µM | IC50 (PKA): > 20 µM | IC50 (Akt1): 0.25 µM

SMILES: COc1cc2c(cc1N1CCC(N3CCCC3)CC1)ncc1c(N)nc(-c3cccnc3C)cc12 [Ia-19, 9-methoxy-2-(2-methylpyridin-3-yl)-8-(4-pyrrolidin-1-ylpiperidin-1-yl)benzo[c]-2,7-naphthyridin-4-amine]
IC50 (PDK-1; [1]): > 5 µM | IC50 (PKA): > 10 µM

SMILES: COc1cc2c(cc1OCCCN1CCCC1)ncc1c(N)nc(-c3cccnc3C)cc12 [Ia-9, 9-Methoxy-2-(2-methylpyridin-3-yl)-8-(3-pyrrolidin-1-ylpropoxy)benzo[c]-2,7-naphthyridin-4-amine]
IC50 (PDK-1; [1]): 2.12 µM | IC50 (PKA): > 10 µM | IC50 (Akt1): 4 µM

SMILES: CCOc1cc2ncc3c(N)nc(-c4cccnc4)cc3c2cc1OCC [Ia-46, 8,9-Diethoxy-2-pyridin-3-ylbenzo[c]-2,7-naphthyridin-4-amine]
IC50 (PDK-1): 0.074 µM | IC50 (PKA): > 20 µM | IC50 (Akt1): 0.2 µM

SMILES: COc1cc2ncc3c(N)nc(-n4ccnc4)cc3c2cc1OC [Ib-74, 2-(1H-imidazol-1-yl)-8,9-dimethoxybenzo[c]-2,7-naphthyridin-4-amine]
IC50 (PKA): > 20 µM | IC50 (Akt1): 0.18 µM

SMILES: COCCOc1cc2ncc3c(N)nc(-n4cnc(-c5ccccc5)c4)cc3c2cc1OC [Ia-41, 9-Methoxy-8-(2-methoxyethoxy)-2-(4-phenyl-1H-imidazol-1-yl)benzo[c]-2,7-naphthyridin-4-amine]
IC50 (PDK-1; [1]): 2.03 µM | IC50 (PKA): > 20 µM | IC50 (Akt1): 18 µM

SMILES: CC(C)(C)OC(=O)N[C@H](COc1cncc(-c2cc3c(cnc4cc(C#CCCn5ccnc5)ccc43)c(N)n2)c1)Cc1ccccc1 [Ia-6, tert-Butyl-{(1S)-2-[(5-{4-amino-8-[4-(1H-imidazol-1-yl)but-1-yn-1-yl]benzo[c]-2,7-naphthyridin-2-yl}pyridin-3-yl)oxy]-1-benzylethyl}carbamate]
IC50 (PDK-1; [1]): > 5 µM | IC50 (PKA): > 20 µM | IC50 (Akt1): > 20 µM

Continued by falling IC50 (PDK-1; [1]), values first:

IC50 (PDK-1; [1]): 0.212 µM | IC50 (PKA): > 10 µM | IC50 (Akt1): 3 µM
SMILES: COc1cc2ncc3c(N)nc(-c4cncc(OC[C@@H](N)Cc5ccc(OCc6ccccc6)cc5)c4)cc3c2cc1OC [Ib-54, 2-[5-({(2S)-2-amino-3-[4-(benzyloxy)phenyl]propyl}oxy)pyridin-3-yl]-8,9-dimethoxybenzo[c]-2,7-naphthyridin-4-amine]

IC50 (PDK-1; [1]): 0.205 µM | IC50 (PKA): > 20 µM | IC50 (Akt1): 2.8 µM
SMILES: COc1cc2ncc3c(N)nc(-n4cnc(CO)c4)cc3c2cc1OC [Ib-69, [1-(4-Amino-8,9-dimethoxybenzo[c]-2,7-naphthyridin-2-yl)-1H-imidazol-4-yl]methanol]

IC50 (PDK-1; [1]): 0.193 µM | IC50 (PKA): > 20 µM | IC50 (Akt1): 0.18 µM
SMILES: COc1cc2c(cc1OCc1ccccc1)ncc1c(N)nc(-n3ccnc3)cc12 [Ia-34, 8-(Benzyloxy)-2-(1H-imidazol-1-yl)-9-methoxybenzo[c]-2,7-naphthyridin-4-amine]

IC50 (PDK-1; [1]): 0.179 µM | IC50 (PKA): > 20 µM | IC50 (Akt1): 15 µM
SMILES: Nc1nc(-n2ccnc2)cc2c1cnc1cc(C#CCCn3ccnc3)ccc12 [Ia-30, 2-(1H-imidazol-1-yl)-8-[4-(1H-imidazol-1-yl)but-1-yn-1-yl]benzo[c]-2,7-naphthyridin-4-amine]

IC50 (PDK-1; [1]): 0.17 µM | IC50 (PKA): > 10 µM | IC50 (Akt1): 0.38 µM
SMILES: COc1cc2c(cc1OCCCN1CCOCC1)ncc1c(N)nc(-n3ccnc3)cc12 [Ia-16, 2-(1H-imidazol-1-yl)-9-methoxy-8-(3-morpholinopropoxy)benzo[c][2,7]naphthyridin-4-amine]

IC50 (PDK-1; [1]): 0.116 µM | IC50 (PKA): 1.25 µM | IC50 (Akt1): 0.23 µM
SMILES: CCN1CCN(CC/C=C/c2ccc3c(c2)ncc2c(N)nc(-n4ccnc4)cc23)CC1 [Ia-25, 8-[(1E)-4-(4-ethylpiperazin-1-yl)but-1-en-1-yl]-2-(1H-imidazol-1-yl)benzo[c]-2,7-naphthyridin-4-amine]

IC50 (PDK-1; [1]): 0.108 µM | IC50 (PKA): > 20 µM | IC50 (Akt1): 0.35 µM
SMILES: COCCOc1cc2ncc3c(N)nc(-n4cnc(C)c4)cc3c2cc1OC [Ia-42, 9-Methoxy-8-(2-methoxyethoxy)-2-(4-methyl-1H-imidazol-1-yl)benzo[c]-2,7-naphthyridin-4-amine]

IC50 (PDK-1; [1]): 0.081 µM
SMILES: COc1cc2ncc3c(N)nc(-c4cncc(Nc5ccc(CN)cc5)c4)cc3c2cc1OC [Ib-192, 2-(5-{[4-(aminomethyl)phenyl]amino}pyridin-3-yl)-8,9-dimethoxybenzo[c][2,7]naphthyridin-4-amine]

IC50 (PDK-1; [1]): 0.0507 µM
SMILES: COc1cc2ncc3c(N)nc(-c4cncc(Nc5ccccc5N)c4)cc3c2cc1OC [Ib-182, N-[5-(4-amino-8,9-dimethoxybenzo[c][2,7]naphthyridin-2-yl)pyridin-3-yl]benzene-1,2-diamine]

IC50 (PDK-1; [1]): 0.005 µM
SMILES: COc1cc2ncc3c(N)nc(-c4cncc(OC[C@@H](N)CNc5ccc(F)cc5F)c4)cc3c2cc1OC [Ib-85, (2S)-3-{[5-(4-amino-8,9-dimethoxybenzo[c][2,7]naphthyridin-2-yl)pyridin-3-yl]oxy}-N1-(2,4-difluorophenyl)propane-1,2-diamine]

IC50 (PDK-1; [1]): 0.003 µM
SMILES: COc1cc2ncc3c(N)nc(-c4cncc(OC[C@@H](N)CSc5ccccn5)c4)cc3c2cc1OC [Ib-159, 2-(5-{[(2R)-2-amino-3-(pyridin-2-ylthio)propyl]oxy}pyridin-3-yl)-8,9-dimethoxybenzo[c][2,7]naphthyridin-4-amine]
